Experiment [1] has as its target T1, Serine/threonine-protein kinase Chk1 (Homo sapiens) (UniProt O14757).
T1 sequence (whole entry): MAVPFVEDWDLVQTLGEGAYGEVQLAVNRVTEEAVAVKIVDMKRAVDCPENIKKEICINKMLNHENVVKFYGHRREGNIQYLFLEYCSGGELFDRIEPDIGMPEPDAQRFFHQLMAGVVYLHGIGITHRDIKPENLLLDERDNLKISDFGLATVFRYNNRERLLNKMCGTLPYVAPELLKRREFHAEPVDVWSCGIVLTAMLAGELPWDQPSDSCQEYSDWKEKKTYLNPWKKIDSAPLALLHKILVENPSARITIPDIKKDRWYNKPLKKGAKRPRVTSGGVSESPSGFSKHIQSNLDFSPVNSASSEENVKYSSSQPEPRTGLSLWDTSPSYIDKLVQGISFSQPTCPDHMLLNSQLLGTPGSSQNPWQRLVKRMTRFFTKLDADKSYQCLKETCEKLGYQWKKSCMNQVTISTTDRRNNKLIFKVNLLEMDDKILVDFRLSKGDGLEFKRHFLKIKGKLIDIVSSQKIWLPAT
Description: Inhibition of CHK1 (unknown origin) at 10 uM by single point assay.

In experiment [2] the target is PI3-kinase p110-alpha/p85-alpha (Homo sapiens) (UniProt P27986+P42336). As to the kind of experiment: Inhibition of PIK3CA/PIK3R1 (unknown origin) at 10 uM by single point assay. In kind it is protein-complex assay.
Experiment [3] addresses Leucine-rich repeat serine/threonine-protein kinase 2 (Homo sapiens, UniProt Q5S007). To be noted: 10 uM.
Description: Inhibition of LRRK2 (unknown origin) at 10 uM by single point assay
The target of experiment [4] is Receptor tyrosine-protein kinase erbB-4 (Homo sapiens) (UniProt Q15303). As to the kind of experiment: Inhibition of ErbB4 (unknown origin) at 10 uM by single point assay.
Sequence of Receptor tyrosine-protein kinase erbB-4 (Homo sapiens) (Q15303 whole entry): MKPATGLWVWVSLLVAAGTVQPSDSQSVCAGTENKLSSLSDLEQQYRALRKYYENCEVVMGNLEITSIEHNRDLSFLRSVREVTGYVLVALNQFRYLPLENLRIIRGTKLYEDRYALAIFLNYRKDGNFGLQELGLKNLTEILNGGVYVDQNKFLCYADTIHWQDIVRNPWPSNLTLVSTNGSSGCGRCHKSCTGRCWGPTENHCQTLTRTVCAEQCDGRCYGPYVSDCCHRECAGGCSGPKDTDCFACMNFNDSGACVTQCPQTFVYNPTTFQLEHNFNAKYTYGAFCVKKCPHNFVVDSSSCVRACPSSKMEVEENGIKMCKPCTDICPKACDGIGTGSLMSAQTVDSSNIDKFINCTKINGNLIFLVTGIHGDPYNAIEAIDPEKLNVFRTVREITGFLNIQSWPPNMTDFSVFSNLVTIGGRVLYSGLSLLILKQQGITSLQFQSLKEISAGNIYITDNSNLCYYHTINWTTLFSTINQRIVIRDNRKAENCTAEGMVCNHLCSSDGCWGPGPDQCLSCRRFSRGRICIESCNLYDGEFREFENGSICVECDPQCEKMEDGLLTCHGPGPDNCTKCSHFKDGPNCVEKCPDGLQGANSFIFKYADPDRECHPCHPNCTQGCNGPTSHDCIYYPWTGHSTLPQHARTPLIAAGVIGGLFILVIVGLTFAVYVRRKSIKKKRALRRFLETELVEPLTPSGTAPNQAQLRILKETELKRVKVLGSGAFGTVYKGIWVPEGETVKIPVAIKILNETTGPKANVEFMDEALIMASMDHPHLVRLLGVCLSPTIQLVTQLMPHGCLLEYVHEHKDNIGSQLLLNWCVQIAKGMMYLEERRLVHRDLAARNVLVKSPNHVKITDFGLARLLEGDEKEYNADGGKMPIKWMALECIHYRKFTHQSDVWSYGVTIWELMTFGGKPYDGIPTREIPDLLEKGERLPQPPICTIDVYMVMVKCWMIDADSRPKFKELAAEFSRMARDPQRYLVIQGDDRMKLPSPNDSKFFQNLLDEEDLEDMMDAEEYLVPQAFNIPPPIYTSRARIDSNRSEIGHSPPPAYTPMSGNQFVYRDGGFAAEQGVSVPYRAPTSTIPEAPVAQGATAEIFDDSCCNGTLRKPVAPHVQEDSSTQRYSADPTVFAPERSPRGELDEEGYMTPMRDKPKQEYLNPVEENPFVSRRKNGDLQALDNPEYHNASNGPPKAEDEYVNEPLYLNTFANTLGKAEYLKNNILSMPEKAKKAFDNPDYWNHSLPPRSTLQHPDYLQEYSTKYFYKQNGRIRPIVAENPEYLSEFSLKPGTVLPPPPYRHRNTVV

Each structure is given as a SMILES string.

Sequence of Leucine-rich repeat serine/threonine-protein kinase 2 (Q5S007 whole entry): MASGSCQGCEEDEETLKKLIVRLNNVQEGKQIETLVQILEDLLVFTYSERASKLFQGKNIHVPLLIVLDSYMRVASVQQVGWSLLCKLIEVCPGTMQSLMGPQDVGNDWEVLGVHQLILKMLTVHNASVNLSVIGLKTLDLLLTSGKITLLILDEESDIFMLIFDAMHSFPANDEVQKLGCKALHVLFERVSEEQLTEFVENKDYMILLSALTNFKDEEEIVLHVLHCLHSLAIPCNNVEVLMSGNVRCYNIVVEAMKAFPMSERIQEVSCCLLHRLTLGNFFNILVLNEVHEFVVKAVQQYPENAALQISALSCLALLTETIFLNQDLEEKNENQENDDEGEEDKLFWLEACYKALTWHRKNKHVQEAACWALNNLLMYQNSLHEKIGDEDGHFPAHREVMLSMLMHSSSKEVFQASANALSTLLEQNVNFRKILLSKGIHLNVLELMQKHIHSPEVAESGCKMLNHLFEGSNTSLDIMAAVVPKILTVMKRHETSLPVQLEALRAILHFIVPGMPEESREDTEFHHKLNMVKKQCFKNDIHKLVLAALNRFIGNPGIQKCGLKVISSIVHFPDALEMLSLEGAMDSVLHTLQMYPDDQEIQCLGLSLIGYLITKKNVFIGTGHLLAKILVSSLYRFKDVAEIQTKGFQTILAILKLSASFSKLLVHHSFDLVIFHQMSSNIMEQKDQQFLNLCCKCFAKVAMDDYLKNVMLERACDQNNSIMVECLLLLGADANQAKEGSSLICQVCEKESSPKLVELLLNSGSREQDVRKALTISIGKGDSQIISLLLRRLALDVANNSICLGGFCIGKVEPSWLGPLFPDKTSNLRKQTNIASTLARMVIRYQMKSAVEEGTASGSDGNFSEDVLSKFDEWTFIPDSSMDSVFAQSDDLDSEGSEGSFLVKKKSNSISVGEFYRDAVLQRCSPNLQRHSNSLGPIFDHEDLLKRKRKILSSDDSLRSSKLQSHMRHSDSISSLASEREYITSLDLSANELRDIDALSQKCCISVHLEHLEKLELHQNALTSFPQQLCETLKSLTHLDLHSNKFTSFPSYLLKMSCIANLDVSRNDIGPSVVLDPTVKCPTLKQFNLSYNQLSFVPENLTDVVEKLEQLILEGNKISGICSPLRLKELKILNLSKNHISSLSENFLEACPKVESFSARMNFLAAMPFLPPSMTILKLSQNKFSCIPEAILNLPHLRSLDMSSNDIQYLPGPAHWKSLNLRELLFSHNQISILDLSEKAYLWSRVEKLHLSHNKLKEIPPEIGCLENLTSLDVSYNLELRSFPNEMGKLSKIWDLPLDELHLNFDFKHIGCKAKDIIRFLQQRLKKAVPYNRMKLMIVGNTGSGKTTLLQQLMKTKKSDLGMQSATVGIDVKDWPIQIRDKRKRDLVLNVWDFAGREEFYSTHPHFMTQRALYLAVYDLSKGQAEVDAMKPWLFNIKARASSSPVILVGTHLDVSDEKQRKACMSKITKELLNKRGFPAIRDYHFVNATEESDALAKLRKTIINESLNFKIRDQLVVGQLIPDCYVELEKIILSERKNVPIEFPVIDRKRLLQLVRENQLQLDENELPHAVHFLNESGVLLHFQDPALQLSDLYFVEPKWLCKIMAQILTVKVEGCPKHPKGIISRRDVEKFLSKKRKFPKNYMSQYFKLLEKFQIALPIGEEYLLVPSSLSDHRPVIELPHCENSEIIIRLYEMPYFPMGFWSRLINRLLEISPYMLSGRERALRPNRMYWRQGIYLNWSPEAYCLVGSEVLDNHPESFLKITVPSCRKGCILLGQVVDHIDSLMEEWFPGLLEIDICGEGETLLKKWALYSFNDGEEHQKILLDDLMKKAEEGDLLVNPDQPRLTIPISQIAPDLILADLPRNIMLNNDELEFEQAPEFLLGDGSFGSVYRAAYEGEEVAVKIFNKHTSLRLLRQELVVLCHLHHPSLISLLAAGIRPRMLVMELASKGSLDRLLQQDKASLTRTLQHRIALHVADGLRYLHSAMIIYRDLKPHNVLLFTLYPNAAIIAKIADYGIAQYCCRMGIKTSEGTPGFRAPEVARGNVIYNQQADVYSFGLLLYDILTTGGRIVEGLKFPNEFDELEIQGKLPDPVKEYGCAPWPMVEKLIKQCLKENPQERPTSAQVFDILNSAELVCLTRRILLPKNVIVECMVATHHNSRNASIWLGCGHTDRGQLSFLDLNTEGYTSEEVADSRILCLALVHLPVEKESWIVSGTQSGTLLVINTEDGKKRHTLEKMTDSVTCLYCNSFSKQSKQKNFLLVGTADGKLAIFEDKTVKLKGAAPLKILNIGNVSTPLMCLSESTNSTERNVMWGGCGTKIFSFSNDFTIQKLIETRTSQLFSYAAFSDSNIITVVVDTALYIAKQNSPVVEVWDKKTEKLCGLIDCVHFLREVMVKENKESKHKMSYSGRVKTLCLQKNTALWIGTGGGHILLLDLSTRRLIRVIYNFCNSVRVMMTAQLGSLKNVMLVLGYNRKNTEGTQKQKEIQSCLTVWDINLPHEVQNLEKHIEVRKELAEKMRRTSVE

What is called inhibition is the relative decrease from the control value, in per cent. A low value points to a response near the control. In the case of `C[C@@H](Nc1c(C#N)cnc2cc(-c3ccc(-n4ccoc4=O)cc3)ccc12)C1CC1`, the inhibition amounted to 31% in experiment [1], 13% in experiment [2], 81% in experiment [3] and 7% in experiment [4].

Source of the values: ChEMBL document CHEMBL2346515, “Discovery of 4-alkylamino-7-aryl-3-cyanoquinoline LRRK2 kinase inhibitors” (Bioorg Med Chem Lett, 2013).
